Test results: article PMC9299796, “A Specialized Dehydrogenase Provides L‐Phenyllactate for FR900359 Biosynthesis” (Chembiochem, 2021)

Test system: FrsC
Conditions: 0.5 mM NADPH, pH 6, 30 °C, 1 μM FrsC, tag removed

O=C(O)C(=O)Cc1ccccc1 [phenylpyruvic acid]
Km: 1370 ± 410 µM
